Reference: patent US6872690B2, “Herbicidal 2-alkynyl-pyri (mi) dines” (WYETH, priority 2001, dated 2005)

Columns and labels:
Format in all cases: in vivo
Echinochloa crus-galli [1] = assay: Pre-emergence test; conditions: 3 weeks after treatment
Experimental: (§1) To evaluate their herbicidal activity, compounds according to the invention are tested using a representative range of plants:
(§2) The pre-emergence tests involve spraying a liquid formulation of the compound onto the soil in which the seeds of the plant species mentioned above has recently been sown.
(§3) The soil used in the tests is a prepared horticultural loam. The formulations used in the tests are prepared from solutions of the test compounds in acetone containing 0.4% by weight of an alkyl-phenol/ethylene oxide condensate available under the trade mark TRITON X-155. These acetone solutions are diluted with water and the resulting formulations applied at dosage levels corresponding to 0.013 kg, 0.025 kg, 0.100 kg or 0.400 kg of active material per hectare in a volume equivalent to 900 litres per hectare. In these tests untreated sown soil are used as controls. From 2 to 4 weeks after treatment, the tests are terminated and each pot is examined and rated according to the rating system set forth below: […]

Stellaria media [2] = assay: Pre-emergence test; conditions: 3 weeks after treatment
Experimental: as §1, §2, §3

Abutilon theophrasti [3] = assay: Pre-emergence test; conditions: 3 weeks after treatment
Experimental: as §1, §2, §3

Matricaria inodora [4] = assay: Pre-emergence test; conditions: 3 weeks after treatment
Experimental: as §1, §2, §3

Setaria viridis [5] = assay: Pre-emergence test; conditions: 3 weeks after treatment
Experimental: as §1, §2, §3

Ipomoea hederacea [6] = assay: Pre-emergence test; conditions: 3 weeks after treatment
Experimental: as §1, §2, §3

Alopecurus myosuroides [7] = assay: Pre-emergence test; conditions: 3 weeks after treatment
Experimental: as §1, §2, §3

Digitaria sanguinalis [8] = assay: Pre-emergence test; conditions: 3 weeks after treatment
Experimental: as §1, §2, §3

Zea mays [9] = assay: Pre-emergence test; conditions: 3 weeks after treatment
Experimental: as §1, §2, §3

Lamium purpureum = assay: Pre-emergence test; conditions: 3 weeks after treatment
Experimental: as §1, §2, §3

Orysa sativa [10] = assay: Pre-emergence test; conditions: 3 weeks after treatment
Experimental: as §1, §2, §3

Glycine max [11] = assay: Pre-emergence test; conditions: 3 weeks after treatment
Experimental: as §1, §2, §3

Galium aparine [12] = assay: Pre-emergence test; conditions: 3 weeks after treatment
Experimental: as §1, §2, §3

Cassia obtusifolia [13] = assay: Pre-emergence test; conditions: 3 weeks after treatment
Experimental: as §1, §2, §3

Triticum aestivum [14] = assay: Pre-emergence test; conditions: 3 weeks after treatment
Experimental: as §1, §2, §3

Echinochloa crus-galli [15] = assay: Post-emergence herbicidal activity test; conditions: 2-4 weeks after treatment
Experimental: as §1
(§4) These acetone solutions are diluted with water and the resulting formulations applied at dosage levels equivalent of about 0.025 to 0. 4 kg per hectare of test compound per pot. After spraying the plants are placed on greenhouse benches and are cared for in the usual manner, commensurate with conventional greenhouse practices. From 2 to 4 weeks after treatment, the seedling plants are examined and rated according to the rating system provided above.

Stellaria media [16] = assay: Post-emergence herbicidal activity test; conditions: 2-4 weeks after treatment
Experimental: as §1, §4

Abutilon theophrasti [17] = assay: Post-emergence herbicidal activity test; conditions: 2-4 weeks after treatment
Experimental: as §1, §4

Matricaria inodora [18] = assay: Post-emergence herbicidal activity test; conditions: 2-4 weeks after treatment
Experimental: as §1, §4

Setaria viridis [19] = assay: Post-emergence herbicidal activity test; conditions: 2-4 weeks after treatment
Experimental: as §1, §4

Ipomoea hederacea [20] = assay: Post-emergence herbicidal activity test; conditions: 2-4 weeks after treatment
Experimental: as §1, §4

Alopecurus myosuroides [21] = assay: Post-emergence herbicidal activity test; conditions: 2-4 weeks after treatment
Experimental: as §1, §4

Digitaria sanguinalis [22] = assay: Post-emergence herbicidal activity test; conditions: 2-4 weeks after treatment
Experimental: as §1, §4

Zea mays [23] = assay: Post-emergence herbicidal activity test; conditions: 2-4 weeks after treatment
Experimental: as §1, §4

Orysa sativa [24] = assay: Post-emergence herbicidal activity test; conditions: 2-4 weeks after treatment
Experimental: as §1, §4

Glycine max [25] = assay: Post-emergence herbicidal activity test; conditions: 2-4 weeks after treatment
Experimental: as §1, §4

Galium aparine [26] = assay: Post-emergence herbicidal activity test; conditions: 2-4 weeks after treatment
Experimental: as §1, §4

Cassia obtusifolia [27] = assay: Post-emergence herbicidal activity test; conditions: 2-4 weeks after treatment
Experimental: as §1, §4

Triticum aestivum [28] = assay: Post-emergence herbicidal activity test; conditions: 2-4 weeks after treatment
Experimental: as §1, §4

SMILES: COc1cc(C#Cc2ccccc2)nc(Oc2cc(C(F)(F)F)nn2C)c1 [Example 27]
- Assessment (pre-emergence application) ECHCG (Echinochloa crus-galli [1]; 0.025 kg/ha): 3 (3-Moderate effect)
- Assessment (pre-emergence application) ECHCG (Echinochloa crus-galli [1]; 0.100 kg/ha): 4 (4-Injury)
- Assessment (pre-emergence application) ECHCG (Echinochloa crus-galli [1]; 0.400 kg/ha): 7 (7-Good herbicidal effect)
- Assessment (pre-emergence application) STEME (Stellaria media [2]; 0.025 kg/ha): 9 (9-Complete kill)
- Assessment (pre-emergence application) STEME (Stellaria media [2]; 0.100 kg/ha): 9 (9-Complete kill)
- Assessment (pre-emergence application) STEME (Stellaria media [2]; 0.400 kg/ha): 9 (9-Complete kill)
- Assessment (pre-emergence application) ABUTH (Abutilon theophrasti [3]; 0.025 kg/ha): 5 (5-Definite injury)
- Assessment (pre-emergence application) ABUTH (Abutilon theophrasti [3]; 0.100 kg/ha): 5 (5-Definite injury)
- Assessment (pre-emergence application) ABUTH (Abutilon theophrasti [3]; 0.400 kg/ha): 8 (8-Approaching complete kill)
- Assessment (pre-emergence application) MATIN (Matricaria inodora [4]; 0.025 kg/ha): 8 (8-Approaching complete kill)
- Assessment (pre-emergence application) MATIN (Matricaria inodora [4]; 0.100 kg/ha): 8 (8-Approaching complete kill)
- Assessment (pre-emergence application) MATIN (Matricaria inodora [4]; 0.400 kg/ha): 8 (8-Approaching complete kill)
- Assessment (pre-emergence application) SETVI (Setaria viridis [5]; 0.025 kg/ha): 5 (5-Definite injury)
- Assessment (pre-emergence application) SETVI (Setaria viridis [5]; 0.100 kg/ha): 8 (8-Approaching complete kill)
- Assessment (pre-emergence application) SETVI (Setaria viridis [5]; 0.400 kg/ha): 9 (9-Complete kill)
- Assessment (pre-emergence application) IPOHE (Ipomoea hederacea [6]; 0.025 kg/ha): 3 (3-Moderate effect)
- Assessment (pre-emergence application) IPOHE (Ipomoea hederacea [6]; 0.100 kg/ha): 4 (4-Injury)
- Assessment (pre-emergence application) IPOHE (Ipomoea hederacea [6]; 0.400 kg/ha): 6 (6-Herbicidal effect)
- Assessment (pre-emergence application) ALOMY (Alopecurus myosuroides [7]; 0.025 kg/ha): 2 (2-Slight effect)
- Assessment (pre-emergence application) ALOMY (Alopecurus myosuroides [7]; 0.100 kg/ha): 3 (3-Moderate effect)
- Assessment (pre-emergence application) ALOMY (Alopecurus myosuroides [7]; 0.400 kg/ha): 6 (6-Herbicidal effect)
- Assessment (pre-emergence application) DIGSA (Digitaria sanguinalis [8]; 0.025 kg/ha): 6 (6-Herbicidal effect)
- Assessment (pre-emergence application) DIGSA (Digitaria sanguinalis [8]; 0.100 kg/ha): 6 (6-Herbicidal effect)
- Assessment (pre-emergence application) DIGSA (Digitaria sanguinalis [8]; 0.400 kg/ha): 8 (8-Approaching complete kill)
- Assessment (pre-emergence application) ZEAMX (Zea mays [9]; 0.025 kg/ha): 1 (1-Trace effect)
- Assessment (pre-emergence application) ZEAMX (Zea mays [9]; 0.100 kg/ha): 2 (2-Slight effect)
- Assessment (pre-emergence application) ZEAMX (Zea mays [9]; 0.400 kg/ha): 3 (3-Moderate effect)
- Assessment (pre-emergence application) LAMPU (Lamium purpureum; 0.025 kg/ha): 8 (8-Approaching complete kill)
- Assessment (pre-emergence application) LAMPU (Lamium purpureum; 0.100 kg/ha): 8 (8-Approaching complete kill)
- Assessment (pre-emergence application) LAMPU (Lamium purpureum; 0.400 kg/ha): 9 (9-Complete kill)
- Assessment (pre-emergence application) ORYSA (Orysa sativa [10]; 0.025 kg/ha): 0 (0-No effect)
- Assessment (pre-emergence application) ORYSA (Orysa sativa [10]; 0.100 kg/ha): 1 (1-Trace effect)
- Assessment (pre-emergence application) ORYSA (Orysa sativa [10]; 0.400 kg/ha): 1 (1-Trace effect)
- Assessment (pre-emergence application) GLXMA (Glycine max [11]; 0.025 kg/ha): 2 (2-Slight effect)
- Assessment (pre-emergence application) GLXMA (Glycine max [11]; 0.100 kg/ha): 2 (2-Slight effect)
- Assessment (pre-emergence application) GLXMA (Glycine max [11]; 0.400 kg/ha): 3 (3-Moderate effect)
- Assessment (pre-emergence application) GALAP (Galium aparine [12]; 0.025 kg/ha): 1 (1-Trace effect)
- Assessment (pre-emergence application) GALAP (Galium aparine [12]; 0.100 kg/ha): 2 (2-Slight effect)
- Assessment (pre-emergence application) GALAP (Galium aparine [12]; 0.400 kg/ha): 6 (6-Herbicidal effect)
- Assessment (pre-emergence application) CASOB (Cassia obtusifolia [13]; 0.025 kg/ha): 7 (7-Good herbicidal effect)
- Assessment (pre-emergence application) CASOB (Cassia obtusifolia [13]; 0.400 kg/ha): 8 (8-Approaching complete kill)
- Assessment (pre-emergence application) TRZWA (Triticum aestivum [14]; 0.025 kg/ha): 1 (1-Trace effect)
- Assessment (pre-emergence application) TRZWA (Triticum aestivum [14]; 0.100 kg/ha): 2 (2-Slight effect)
- Assessment (pre-emergence application) TRZWA (Triticum aestivum [14]; 0.400 kg/ha): 3 (3-Moderate effect)
- Post-emergence application ECHCG (Echinochloa crus-galli [15]; 0.100 kg/ha): 5 (5-Definite injury)
- Post-emergence application ECHCG (Echinochloa crus-galli [15]; 0.400 kg/ha): 7 (7-Good herbicidal effect)
- Post-emergence application STEME (Stellaria media [16]; 0.100 kg/ha): 6 (6-Herbicidal effect)
- Post-emergence application STEME (Stellaria media [16]; 0.400 kg/ha): 8 (8-Approaching complete kill)
- Post-emergence application ABUTH (Abutilon theophrasti [17]; 0.100 kg/ha): 5 (5-Definite injury)
- Post-emergence application ABUTH (Abutilon theophrasti [17]; 0.400 kg/ha): 6 (6-Herbicidal effect)
- Post-emergence application MATIN (Matricaria inodora [18]; 0.100 kg/ha): 5 (5-Definite injury)
- Post-emergence application MATIN (Matricaria inodora [18]; 0.400 kg/ha): 7 (7-Good herbicidal effect)
- Post-emergence application SETVI (Setaria viridis [19]; 0.100 kg/ha): 7 (7-Good herbicidal effect)
- Post-emergence application SETVI (Setaria viridis [19]; 0.400 kg/ha): 8 (8-Approaching complete kill)
- Post-emergence application IPOHE (Ipomoea hederacea [20]; 0.100 kg/ha): 6 (6-Herbicidal effect)
- Post-emergence application IPOHE (Ipomoea hederacea [20]; 0.400 kg/ha): 6 (6-Herbicidal effect)
- Post-emergence application ALOMY (Alopecurus myosuroides [21]; 0.100 kg/ha): 6 (6-Herbicidal effect)
- Post-emergence application ALOMY (Alopecurus myosuroides [21]; 0.400 kg/ha): 8 (8-Approaching complete kill)
- Post-emergence application DIGSA (Digitaria sanguinalis [22]; 0.100 kg/ha): 4 (4-Injury)
- Post-emergence application DIGSA (Digitaria sanguinalis [22]; 0.400 kg/ha): 6 (6-Herbicidal effect)
- Post-emergence application ZEAMX (Zea mays [23]; 0.100 kg/ha): 3 (3-Moderate effect)
- Post-emergence application ZEAMX (Zea mays [23]; 0.400 kg/ha): 3 (3-Moderate effect)
- Post-emergence application ORYSA (Orysa sativa [24]; 0.100 kg/ha): 3 (3-Moderate effect)
- Post-emergence application ORYSA (Orysa sativa [24]; 0.400 kg/ha): 3 (3-Moderate effect)
- Post-emergence application GLXMA (Glycine max [25]; 0.100 kg/ha): 4 (4-Injury)
- Post-emergence application GLXMA (Glycine max [25]; 0.400 kg/ha): 6 (6-Herbicidal effect)
- Post-emergence application GALAP (Galium aparine [26]; 0.100 kg/ha): 6 (6-Herbicidal effect)
- Post-emergence application GALAP (Galium aparine [26]; 0.400 kg/ha): 7 (7-Good herbicidal effect)
- Post-emergence application CASOB (Cassia obtusifolia [27]; 0.100 kg/ha): 7 (7-Good herbicidal effect)
- Post-emergence application CASOB (Cassia obtusifolia [27]; 0.400 kg/ha): 7 (7-Good herbicidal effect)
- Post-emergence application TRZWA (Triticum aestivum [28]; 0.100 kg/ha): 2 (2-Slight effect)
- Post-emergence application TRZWA (Triticum aestivum [28]; 0.400 kg/ha): 3 (3-Moderate effect)
